# Assay results from PMC7641581, “Cannabidiol interactions with voltage-gated sodium channels” (eLife, 2020).
# Numbering of substitutions follows the chain as printed.
# What was measured:
# [1] = target: T1, NavMs voltage-gated sodium channel (Magnetococcus marinus, UniProt A0L5S6); test: whole-cell voltage-clamp of transfected CHO-K1 cells; format: cell-based
# T1 construct: gene Mmc1_0798; wild-type NavMs α-subunit in CHO-K1 cells, co-transfected with β1-subunit and eGFP
# T1 sequence (A0L5S6 1-274): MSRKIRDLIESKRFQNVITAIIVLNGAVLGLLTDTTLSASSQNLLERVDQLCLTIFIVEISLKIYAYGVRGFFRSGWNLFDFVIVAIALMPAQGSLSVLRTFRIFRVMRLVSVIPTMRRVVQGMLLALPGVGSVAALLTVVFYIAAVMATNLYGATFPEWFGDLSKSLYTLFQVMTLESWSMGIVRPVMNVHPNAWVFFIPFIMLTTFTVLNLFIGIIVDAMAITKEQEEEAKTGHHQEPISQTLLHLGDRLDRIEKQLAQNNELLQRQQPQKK
# [2] = target: T2, NavMs voltage-gated sodium channel (Magnetococcus marinus, UniProt A0L5S6, T207A); test: whole-cell voltage-clamp, block at […] CBD; format: cell-based
# T2 construct: gene Mmc1_0798; T207A NavMs α-subunit in CHO-K1 cells, co-transfected with β1-subunit and eGFP
# T2 sequence (A0L5S6 1-274 T207A): T1 sequence (A0L5S6 1-274) with T207A
smiles,measurement,setting,value
C=C(C)[C@@H]1CCC(C)=C[C@H]1c1c(O)cc(CCCCC)cc1O [Cannabidiol],IC50,[1],17.8 ± 0.5 µM
same,"whole-cell voltage-clamp, block at 10 μM CBD",[2],The mutation of the threonine side chain to a smaller alanine side chain results in a modest reduction in the CBD block
